Source: the supplement of paper PMC7695840
Where “and” joins values, the source holds several entries; their conditions need not be identical. Equal entries are not always repeated. Structures can show the parent of a compound that is named as a salt.

Legend:
[1] = tested on: Staphylococcus aureus MW2 delta-mecA (mecA-); test: IC50 (growth, competition assay); details: cefoxitin: subinhibitory
Outline: (§1)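 Two fluorescent S. aureus MW2 strains, one carrying and one lacking the resistance gene, were pre-induced, mixed 1:1 and grown unshaken in LB in 1536-well plates for 20 h at 37 °C and 90% humidity with a subinhibitory drug dose set each day. Compounds were tested on five- or nine-point 2-fold gradients in two dye-swapped replicates. DsRed (540/590) and GFP (485/520) signals were scaled per plate between the medians of single-strain controls, and No Treatment was then set to 0.5. For each strain, IC50 was taken as the dose that halved the No Treatment signal, or else the maximal signal.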

[2] = tested on: Staphylococcus aureus MW2 (mecA+); test: IC50 (growth, competition assay); details: cefoxitin: subinhibitory
Outline: as §1

SMILES | IC50 ([1]; fluorescent label: DsRed) | IC50 ([1]; fluorescent label: GFP) | IC50 ([2]; fluorescent label: DsRed) | IC50 ([2]; fluorescent label: GFP)
NC(=O)c1cnccn1 [TEBRAZID] | 18.2 µM | 20.3 µM | 26.7 µM | 35.6 µM
CC(=O)[C@H]1CC[C@H]2[C@@H]3CC=C4C[C@@H](OC(=O)CCC(=O)O)CC[C@]4(C)[C@H]3CC[C@]12C [FORMULA-405] | 18.1 µM | 17.7 µM | 18.1 µM | 35 µM
CCc1cc(-c2n[nH]c(C)c2-c2ccc3c(c2)OCCO3)c(O)cc1O | 15.4 µM | < 9.85 µM | 82.7 µM | 102 µM
Cc1cc(OCCCS(C)(=O)=O)cc(C)c1-c1cccc(COc2ccc3c(c2)OC[C@H]3CC(=O)O)c1 [TAK-875] | < 9.85 µM | < 9.85 µM and 12.2 µM | < 9.85 µM and 22.5 µM | 14.9 µM and 29.2 µM
O=C1C2CC=CCC2C(=O)N1SC(Cl)(Cl)Cl (configuration not stated) [CAPTAN] | < 9.85 µM | < 9.85 µM | 15.7 µM | 18 µM
C=CC1=C(C(=O)O)N2C(=O)[C@@H](NC(=O)/C(=N\O)c3csc(N)n3)[C@H]2SC1 [Cefdinir (Omnicef)] | < 0.498 µM | < 0.498 µM | 4.17 µM | 3.6 µM
N[C@@H](Cc1cc(I)c(Oc2cc(I)c(O)c(I)c2)c(I)c1)C(=O)O [L-Thyroxine] | < 9.85 µM | < 9.85 µM | < 9.85 µM | < 9.85 µM
CC1=C(O)C(=O)C=C2C1=CC=C1[C@@]2(C)CC[C@@]2(C)[C@@H]3C[C@](C)(C(=O)O)CC[C@]3(C)CC[C@]12C [CELASTROL] | < 9.85 µM | < 9.85 µM | < 9.85 µM | < 9.85 µM
CCOc1ccc2ccccc2c1C(=O)N[C@@H]1C(=O)N2[C@@H]1SC(C)(C)[C@@H]2C(=O)O [NALLPEN] | < 9.85 µM | < 9.85 µM | < 9.85 µM | < 9.85 µM
CCn1cc(C(=O)O)c(=O)c2cc(F)c(N3CCN(C)CC3)cc21 [PEFLOXACINE MESYLATE] | < 9.85 µM | < 9.85 µM | < 9.85 µM | < 9.85 µM
C[C@H]1[C@H](C)CC[C@]2(C(=O)O)CC[C@]3(C)C(=CC[C@@H]4[C@@]5(C)C[C@@H](O)[C@H](O)[C@@](C)(CO)[C@@H]5CC[C@]43C)[C@H]12 [Asiatic acid] | 17 µM and 28 µM | 17.5 µM and 23.5 µM | 54.9 µM and 27.7 µM | 29.7 µM and 27.7 µM
Cc1nnc(SCC2=C(C(=O)O)N3C(=O)[C@@H](NC(=O)Cn4cnnn4)[C@H]3SC2)s1 [ANCEF] | < 9.85 µM | < 9.85 µM | 17.8 µM | 14.9 µM
O=C(C=Cc1ccc(O)cc1)c1ccccc1O [2',4-DIHYDROXYCHALCONE] | 26.7 µM | 23.8 µM | 40.6 µM | 58 µM
COc1ccc(NS(=O)(=O)c2sc3ccc(Cl)cc3c2C)cc1N1CCNCC1 | 22.7 µM | 16.5 µM | 102 µM | 108 µM
CO[C@@]1(NC(=O)C(C(=O)O)c2ccc(O)cc2)C(=O)N2C(C(=O)O)=C(CSc3nnnn3C)CO[C@@H]21 (some centres not stated) [MOXAM] | < 9.85 µM | < 9.85 µM | 26.2 µM | 18.5 µM
C=C[C@]1(C)C[C@@H](OC(=O)CS[C@@H]2C[C@H]3CC[C@@H](C2)N3C)[C@]2(C)[C@H](C)CC[C@]3(CCC(=O)[C@H]32)[C@@H](C)[C@@H]1O [Retapamulin] | < 9.85 µM | < 9.85 µM | < 9.85 µM | < 9.85 µM
Oc1ccc(Cl)cc1Cc1cc(Cl)ccc1O [DICHLOROPHEN] | < 9.85 µM | < 9.85 µM | < 9.85 µM | < 9.85 µM
Oc1c(I)cc(Cl)c2cccnc12 [VIOFORM] | < 9.85 µM | < 9.85 µM | 15 µM | 14.9 µM
Cc1cc2nc3c(=O)[nH]c(=O)nc-3n(C[C@H](O)[C@H](O)[C@H](O)CO)c2cc1C [Riboflavin (Vitamin B2)] | > 150 µM | > 150 µM | > 150 µM | > 150 µM
CC(C)(C)c1ccc(C(=O)CCCN2CCC(OC(c3ccccc3)c3ccccc3)CC2)cc1 [Ebastine] | < 9.85 µM | < 9.85 µM | 16.4 µM | 15.3 µM
C[C@@H]1CN(c2c(F)c(N)c3c(=O)c(C(=O)O)cn(C4CC4)c3c2F)C[C@H](C)N1 [ZAGAM] | < 9.85 µM | < 9.85 µM | < 9.85 µM | < 9.85 µM
O=C1NC(=O)[C@@]2(CCOc3ccc(F)cc32)N1 [Sorbinil] | < 9.85 µM | < 9.85 µM | < 9.85 µM | < 9.85 µM

SMILES | IC50 ([1]; fluorescent label: DsRed) | IC50 ([1]; fluorescent label: GFP) | IC50 ([2]; fluorescent label: DsRed) | IC50 ([2]; fluorescent label: GFP)
CC(=O)O[C@H]1C[C@@]2(C)[C@@H](C[C@@H](O)[C@H]3[C@@]4(C)CC[C@@H](O)[C@@H](C)[C@@H]4CC[C@@]32C)/C1=C(\CCC=C(C)C)C(=O)O [FUCIDINE] | < 9.85 µM | < 9.85 µM | < 9.85 µM | < 9.85 µM
O=C1NC(=O)/C(=C/c2cccc(C(F)(F)F)c2)S1 [SMI-4a] | < 9.85 µM | 12.2 µM and 14.6 µM | < 9.85 µM | < 9.85 µM
CN(C)CCC=C1c2ccccc2CCc2ccccc21 [ELAVIL] | 33.3 µM | 18.5 µM | 111 µM | 112 µM
COc1ccnc2[nH]cc(C(=O)C(=O)N3CCN(C(=O)c4ccccc4)C[C@H]3C)c12 | > 150 µM | > 150 µM | > 150 µM | > 150 µM
CN[C@H]1CC[C@@H](c2ccc(Cl)c(Cl)c2)c2ccccc21 [Sertraline hydrochloride] | 22.8 µM | 33.7 µM | 96.4 µM | 77.9 µM
CCOc1ccc2ccccc2c1C(=O)N[C@@H]1C(=O)N2[C@@H]1SC(C)(C)[C@@H]2C(=O)O [Nafcillin Sodium] | < 9.85 µM | < 9.85 µM | < 9.85 µM | < 9.85 µM
CCOC(=O)C1=C(C)NC(C)=C(C(=O)OC)C1c1cccc(Cl)c1Cl (configuration not stated) [Felodipine] | < 9.85 µM | < 9.85 µM | 27.8 µM | 32.3 µM
O=C(Nc1ccc([N+](=O)[O-])cc1Cl)c1cc(Cl)ccc1O [NICLOSIDE] | < 9.85 µM | < 9.85 µM | < 9.85 µM | < 9.85 µM
COc1cc2c(c(OC)c1OC)-c1ccc(=O)c(O)cc1[C@@H](NC(C)=O)CC2 [COLCHICEINE] | 45.5 µM | 51.2 µM | 81.3 µM | 84.6 µM
CN(C)c1ccc(C(=C2C=CC(=[N+](C)C)C=C2)c2ccc(N(C)C)cc2)cc1 [Crystal violet] | < 0.498 µM | < 0.498 µM | 0.691 µM | 0.758 µM
CCCCCCCCCCCCCCCC[N+](C)(C)CCN(Cc1ccc(OC)cc1)c1ncccn1 [THONZIDE] | < 9.85 µM | < 9.85 µM | < 9.85 µM | 14.9 µM
C[C@H]1COC2=C1C(=O)C(=O)c1c2ccc2c1CCCC2(C)C [Cryptotanshinone] | < 9.85 µM | < 9.85 µM | 12.1 µM | 19.2 µM
O=[N+]([O-])c1ccc(O)c2ncccc12 [ENTEROCOL] | 38.4 µM | < 9.85 µM | 16.2 µM | 54.4 µM
CO/N=C(\C(=O)N[C@@H]1C(=O)N2C(C(=O)O)=C(COC(N)=O)CS[C@H]12)c1ccco1 [ZINACEF] | < 9.85 µM | < 9.85 µM | 21.3 µM | 19.3 µM
CC[C@H](C)C(=O)O[C@H]1C[C@H](O)C=C2C=C[C@H](C)[C@H](CC[C@@H](O)C[C@@H](O)CC(=O)O)[C@H]21 [Pravastatin sodium] | < 9.85 µM | < 9.85 µM | 28.8 µM | 27.8 µM
CC[C@@]1([C@@H]2O[C@@H]([C@H]3O[C@@](O)(CO)[C@H](C)C[C@@H]3C)C[C@@H]2C)CC[C@H]([C@]2(C)CC[C@]3(C[C@H](O)[C@@H](C)[C@@H]([C@@H](C)[C@@H](OC)[C@H](C)C(=O)O)O3)O2)O1 [Monensin sodium salt (Coban)] | 3.16 µM and < 9.85 µM | < 0.498 µM | 2.46 µM and < 9.85 µM | 8.62 µM and 13.9 µM
CC[C@H]1OC(=O)[C@H](C)C(=O)[C@H](C)[C@@H](O[C@@H]2O[C@H](C)C[C@H](N(C)C)[C@H]2O)[C@](C)(OC)C[C@@H](C)C(=O)[C@H](C)[C@H]2N(CCCCn3cnc(-c4cccnc4)c3)C(=O)O[C@]12C [KETEK] | < 9.85 µM | < 9.85 µM | < 9.85 µM | < 9.85 µM
CN(C)[C@@H]1C(O)=C(C(N)=O)C(=O)[C@@]2(O)C(O)=C3C(=O)c4c(O)cccc4[C@@](C)(O)[C@H]3[C@H](O)[C@@H]12 [TERRAMYCIN] | < 9.85 µM | < 9.85 µM | < 9.85 µM | < 9.85 µM
CC[C@@H](C(=O)[C@@H](C)[C@@H](O)[C@H](C)[C@@H]1O[C@@H]([C@@H](CC)C(=O)O)CC[C@@H]1C)[C@H]1O[C@]2(C=C[C@@H](O)[C@]3(CC[C@@](C)([C@H]4CC[C@](O)(CC)[C@H](C)O4)O3)O2)[C@H](C)C[C@@H]1C [KOKCISAN] | < 9.85 µM | 32.4 µM | 31.9 µM | < 9.85 µM
COc1ccc2c(c1)OC[C@@H](Cc1ccc(OC)c(OC)c1)[C@H]2O [TETRAHYDROSAPPANONE A TRIMETHYL ETHER] | > 150 µM | > 150 µM | > 150 µM | > 150 µM
CO/N=C(\C(=O)N[C@@H]1C(=O)N2C(C(=O)O)=C(CSC(=O)c3ccco3)CS[C@H]12)c1csc(N)n1 [EXCENEL] | < 9.85 µM | < 9.85 µM | < 9.85 µM | < 9.85 µM
